# Test results taken from US20250057990A1, “TISSUE-SPECIFIC MANGANESE BASED MRI CONTRAST AGENTS” (CASE WESTERN RESERVE UNIVERSITY, priority 2021, published 2025).
# Values joined by “and” are separate entries in the source; they are usually repeats but may differ in a detail not shown here. Equal entries are not always repeated. Where two headings read alike, the source gives them in different places.
# Columns and labels:
# [1] = from literature, cited from earlier work
# [2] = from literature, cited from earlier work; remark: listed apart in the source
# [3] = in vivo; cited from earlier work
# [4] = Relaxivity measurements of Mn(EOB-PC2A) in DPBS; format: physicochemical
# Procedure: (§1) Solutions of Mn(EOB-PC2A) were prepared in DPBS or saline containing 4.5% human serum albumin. The T1 and T2 relaxation times at 1.5T were measured using a Bruker Minispec Relaxometer ([…], 37° C.; Bruker, Billerica, MA, USA). The T1 relaxation times were also measured at 3T using an MRS3000 3T small animal scanner from MR solutions (MR Solutions, Surrey, UK) with a T1 mapping sequence (TR=10 ms, TE=4 ms, T1=50 ms, FOV=40×40 mm, slice thickness=2 mm, number of slices=1, Nav=1, matrix=256×128, flip angle=8°). The r1 and r2 relaxivities were calculated as the slope of the 1/T1 and 1/T2 vs. Mn concentration, respectively.
# [5] = Relaxivity measurements of Mn(EOB-PC2A) in saline containing 4.5% human serum albumin; format: physicochemical; details: 4.5% human serum albumin in saline, 1.5T, 37° C.
# Procedure: as §1
# HepG2 hepatoma cells [6] = test: Cell viability analysis (CCK8) in HepG2 cells; format: cell-based; details: 48 hours, physiologically relevant concentrations
# Procedure: (§2) DU145 cells were purchased from American Type Culture Collection (ATCC, Manassas, VA, USA). HepG2 cells were kindly gifted by Dr. Zhenghong Lee at Case Western Reserve University (CWRU, Cleveland, OH, USA). All cell lines were cultured in Dulbecco's Modified Eagle's Medium (DMEM, Gibco, Amarillo, TX, USA) supplemented with 1% penicillin-streptomycin (Gibco) and 10% fetal bovine serum (Gibco) and incubated at 37° C. and 5% CO2.
# (§3) Cells in culture were trypsonized and counted. In a 96-well plate, cells were seeded at 5,000 cells per well and incubated for 1 day to adhere and proliferate. Cells were then incubated with increasing concentrations of the liver-targeted MBCA for 48 hours. To measure cell viability, a CCK8 assay was performed according to the manufacturer's instructions (Dojindo Molecular Technologies, Inc., Kumamoto, JP). Percent cell viability was calculated as the signal intensity of the treated well divided by the signal intensity of the untreated control wells after accounting for background signal.
# [7] = tested on: DU145 prostate cancer cells; test: Cell viability analysis (CCK8) in DU145 cells; format: cell-based; details: 48 hours, physiologically relevant concentrations
# Procedure: as §2, §3
# HepG2 hepatoma cells [8] = test: Cell uptake analysis (ICP-OES manganese content); format: cell-based; details: 2 mM, 2 hours
# Procedure: Cells were plated in a 6-well plate and incubated for 1 day to adhere and proliferate. Cells were then incubated for 2 hours with 2 mM Mn(EOB-PC2A), after which they were washed three times with DPBS, trypsonized, and pelleted. Cells were resuspended in 250 μL of 75% HNO3 for 48 hours for dissolution, after which 4.75 mL distilled water was added. The samples were centrifuged at 4,000 rpm for 30 minutes to pellet any non-dissolved components and the supernatant was collected. Manganese content in the cell solution was quantified by inductively coupled plasma optical emission spectroscopy (ICP-OES 730, Agilent Technologies, Santa Clara, CA, USA).
# C57BL6 mice [9] = test: T1-weighted axial fast spin-echo MRI of the liver; format: in vivo; details: 0.060 mmol/kg i.v.
# Procedure: (§4) All animal and imaging procedures were performed according to an approved Institutional Animal Care and Use Committee protocol. Male C57BL6 mice were purchased from Jackson Labs (Bar Harbor, ME, USA), housed in an animal facility.
# (§5) All imaging experiments were performed using the MRS3000 3T small animal scanner. Mice (n=5) were anesthetized with 2% isoflurane, the tail vein was cannulized with a catheter, followed by transferal to the heated mouse bed of the MRI scanner. Mice were monitored with a respiration monitor while in the scanner. Before and at 15 and 30 minutes after administration of 60 μmol/kg Mn(EOB-PC2A), mice were imaged with a T1w axial fast spin-echo sequence with respiratory gating (TR=305 ms, TE=11 ms, FOV=40×40 mm, slice thickness=1 mm, number of slices=15, Nav=4, matrix=256×248) and a 3D FLASH sequence (TR=16 ms, […], T1=1000 ms, FOV=70×35 mm, slice thickness=35 mm, number of slices=1, Nav=3, matrix=256×128, flip angle=25°). Mice underwent an additional T1w axial spin-echo and 3D FLASH acquisitions at 24 hours post-injection.
# (§6) MR images were exported in DICOM format, and processed and analyzed using FIJI software (https://imagej.net/software/fiji/). The signal-to-noise ratio [stissue/σnoise] and contrast-to-noise ratio [(stissue−smuscle)/σnoise] were calculated for the relevant tissues of each mouse at every time point. Subtraction images were produced for the 3D FLASH images by first dividing the pixel values of the images of each acquisition by the scaling factor assigned by the MRS software, and then subtracting the corresponding pre-contrast baseline images from the post-contrast images. Maximum intensity projections and 3-dimensional projections were produced for the raw and subtraction 3D FLASH images in FIJI using the “Z-project” function and the “3D-project” function with interpolation, respectively.
# C57BL6 mice [10] = test: 3D FLASH whole-body MRI; format: in vivo; set-up: key to Delta SNR: change in SNR, where SNR = s_tissue/σ_noise; details: for Delta SNR: 0.060 mmol/kg
# Procedure: as §4, §5, §6
# [11] = blood plasma (human plasma), 1.5 T
# [12] = 15 minutes post-injection, relative to pre-contrast baseline
# [13] = 30 minutes post-injection, relative to pre-contrast baseline
# [14] = 24 hours post-injection, relative to pre-contrast baseline
molecule,measurement,setting,value
"O=C([O-])CN(CCN(CC(=O)[O-])CC(=O)[O-])CCN(CC(=O)[O-])C(COCc1ccccc1)C(=O)[O-].[Gd+3].[H+].[H+] (centres unmarked) [Gadobenate, gadobenate]",r1 relaxivity Water/DPBS,[1]; 1.5 T,4.0 mM⁻¹ s⁻¹
same,r1 relaxivity Plasma/Serum,[2]; [11],6.3 mM⁻¹ s⁻¹
"CCOc1ccc(C[C@@H](CN(CCN(CC(=O)[O-])CC(=O)[O-])CC(=O)[O-])N(CC(=O)[O-])CC(=O)[O-])cc1.[Gd+3].[H+].[H+] [Gadoxetate, gadoxetate]",r1 relaxivity Water/DPBS,[1]; 1.5 T,4.7 mM⁻¹ s⁻¹
same,r1 relaxivity Plasma/Serum,[2]; [11],6.9 mM⁻¹ s⁻¹
same,time of peak enhancement after administration,[3],around 20 minutes
"O=C([O-])CN1CCNCc2cccc(n2)CN(CC(=O)[O-])CC1.[Mn+2] [Mn-3,6-PC2A]",r1 relaxivity Water/DPBS,"[1]; water, 1.41 T",2.4 mM⁻¹ s⁻¹
same,r1 relaxivity Plasma/Serum,"[2]; Seronorm, 1.41 T",3.0 mM⁻¹ s⁻¹
"O=C([O-])CN1CCNCCN(CC(=O)[O-])Cc2cccc(n2)C1.[Mn+2] [Mn-3,9-PC2A]",r1 relaxivity Water/DPBS,"[1]; water, 1.41 T",2.2 mM⁻¹ s⁻¹
same,r1 relaxivity Plasma/Serum,"[2]; Seronorm, 1.41 T",3.3 mM⁻¹ s⁻¹
Mn(EOB-PC2A),r1 relaxivity Water/DPBS,"[4]; 1.5T, 37° C.",2.83 mM⁻¹ s⁻¹ and 2.8 mM⁻¹ s⁻¹
same,r1 relaxivity,[4]; 3 T,2.61 mM⁻¹ s⁻¹
same,r1 relaxivity Plasma/Serum,[5],5.85 mM⁻¹ s⁻¹ and 5.9 mM⁻¹ s⁻¹
same,cytotoxicity,HepG2 hepatoma cells [6],no cytotoxicity
same,cytotoxicity,[7],no cytotoxicity
same,intracellular concentration of Mn(II) relative to untreated cells,HepG2 hepatoma cells [8],17 times
same,normalized CNR of the liver,C57BL6 mice [9]; [12],3.20
same,normalized SNR of the liver,C57BL6 mice [9]; [12],1.41
same,normalized CNR of the liver,C57BL6 mice [9]; [13],3.12
same,normalized SNR of the liver,C57BL6 mice [9]; [13],1.42
same,liver CNR,C57BL6 mice [9]; [14],1.16
same,liver SNR,C57BL6 mice [9]; [14],0.86
same,washout time after injection,C57BL6 mice [9]; liver MR signal returns to pre-contrast baseline,≤ 24 h
same,Delta SNR,"C57BL6 mice [10]; Bladder, 15 minutes post-injection",157.07 ± 39.02
same,Delta SNR,"C57BL6 mice [10]; Bladder, 30 minutes post-injection",199.96 ± 25.86
same,Delta SNR,"C57BL6 mice [10]; Bladder, 24 hours post-injection",−2.58 ± 5.42
same,Delta SNR,"C57BL6 mice [10]; Heart, 15 minutes post-injection",−0.04 ± 5.85
same,Delta SNR,"C57BL6 mice [10]; Heart, 30 minutes post-injection",−2.28 ± 7.11
same,Delta SNR,"C57BL6 mice [10]; Heart, 24 hours post-injection",5.73 ± 16.25
same,Delta SNR,"C57BL6 mice [10]; Kidney, 15 minutes post-injection",27.74 ± 7.66
same,Delta SNR,"C57BL6 mice [10]; Kidney, 30 minutes post-injection",21.33 ± 8.28
same,Delta SNR,"C57BL6 mice [10]; Kidney, 24 hours post-injection",3.87 ± 5.62
same,Delta SNR,"C57BL6 mice [10]; Liver, 15 minutes post-injection",51.48 ± 17.20
same,Delta SNR,"C57BL6 mice [10]; Liver, 30 minutes post-injection",29.19 ± 14.28
same,Delta SNR,"C57BL6 mice [10]; Liver, 24 hours post-injection",1.36 ± 6.44
same,Delta SNR,"C57BL6 mice [10]; Lung, 15 minutes post-injection",−0.27 ± 0.44
same,Delta SNR,"C57BL6 mice [10]; Lung, 30 minutes post-injection",−0.41 ± 0.31
same,Delta SNR,"C57BL6 mice [10]; Lung, 24 hours post-injection",−0.43 ± 0.71
same,Delta SNR,"C57BL6 mice [10]; Muscle, 15 minutes post-injection",−3.63 ± 3.21
same,Delta SNR,"C57BL6 mice [10]; Muscle, 30 minutes post-injection",−4.07 ± 5.11
same,Delta SNR,"C57BL6 mice [10]; Muscle, 24 hours post-injection",−6.62 ± 10.13
same,biliary elimination,"C57BL6 mice [10]; enhancement in gallbladder, particularly 30 minutes post-injection",eliminated via biliary excretion
same,renal elimination of unbound agent,"C57BL6 mice [10]; signal enhancement in kidneys and urinary bladder, 15 and 30 minutes post-injection",rapidly excreted via renal filtration
mangafodipir,r1 relaxivity Water/DPBS,[1]; 1.5 T,1.6 mM⁻¹ s⁻¹
same,r1 relaxivity Plasma/Serum,[2]; [11],3.6 mM⁻¹ s⁻¹
